Source: PubChem BioAssay AID1963963 (Molecular Pharmacology Branch, DTP, NCI, 2024)

System: 958667-338-R-J2-PDC tumor spheroids viability
Experiment: Anticancer human tumor 958667-338-R-J2-PDC patient-derived colon adenocarcinoma cell line growth inhibition [PI3K]
Conditions: spheroids with HUVEC and MSC; for viability, T/C: stronger effect = lower value; active = viability on the fitted dose curve at most 10% of control; inactive = the rest
Method in brief: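 We assembled tumor spheroids that included a stromal compartment of HUVEC and MSCs, then exposed them to targeted agents alone and together with PI3K pathway inhibitors. Concentration series descended by half-log from clinically achievable Cmax levels. Viability served as the endpoint.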

[1] = curve of first compound, second compound 0.00316 µM
[2] = curve of first compound, second compound 0.01 µM
[3] = curve of first compound, second compound 0.0316 µM
[4] = curve of first compound, second compound 0.1 µM
[5] = curve of first compound, second compound 0.316 µM
[6] = curve of first compound, second compound 1 µM
[7] = second compound 0.00316 µM, first compound 0.0316 µM
[8] = second compound 0.00316 µM, first compound 0.1 µM
[9] = second compound 0.00316 µM, first compound 0.316 µM
[10] = second compound 0.00316 µM, first compound 1 µM
[11] = second compound 0.00316 µM, first compound 3.16 µM
[12] = second compound 0.00316 µM, first compound 10 µM
[13] = second compound 0.01 µM, first compound 0.0316 µM
[14] = second compound 0.01 µM, first compound 0.1 µM
[15] = second compound 0.01 µM, first compound 0.316 µM
[16] = second compound 0.01 µM, first compound 1 µM
[17] = second compound 0.01 µM, first compound 3.16 µM
[18] = second compound 0.01 µM, first compound 10 µM
[19] = second compound 0.0316 µM, first compound 0.0316 µM
[20] = second compound 0.0316 µM, first compound 0.1 µM
[21] = second compound 0.0316 µM, first compound 0.316 µM
[22] = second compound 0.0316 µM, first compound 1 µM
[23] = second compound 0.0316 µM, first compound 3.16 µM
[24] = second compound 0.0316 µM, first compound 10 µM
[25] = second compound 0.1 µM, first compound 0.0316 µM
[26] = second compound 0.1 µM, first compound 0.1 µM
[27] = second compound 0.1 µM, first compound 0.316 µM
[28] = second compound 0.1 µM, first compound 1 µM
[29] = second compound 0.1 µM, first compound 3.16 µM
[30] = second compound 0.1 µM, first compound 10 µM
[31] = second compound 0.316 µM, first compound 0.0316 µM
[32] = second compound 0.316 µM, first compound 0.1 µM
[33] = second compound 0.316 µM, first compound 0.316 µM
[34] = second compound 0.316 µM, first compound 1 µM
[35] = second compound 0.316 µM, first compound 3.16 µM
[36] = second compound 0.316 µM, first compound 10 µM
[37] = second compound 1 µM, first compound 0.0316 µM
[38] = second compound 1 µM, first compound 0.1 µM
[39] = second compound 1 µM, first compound 0.316 µM
[40] = second compound 1 µM, first compound 1 µM
[41] = second compound 1 µM, first compound 3.16 µM
[42] = second compound 1 µM, first compound 10 µM
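Note: spheroids exposed to compounds for seven days before readout.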

Cn1ncc(Cl)c1-c1cc(C(=O)NC(CN)Cc2cccc(F)c2)sc1Cl (centres undefined) + CC(Nc1ccc2c(c1)OCCn1cc(N3C(=O)OCC3C(F)F)nc1-2)C(N)=O
1.95 µM: IC50 [4]
0.944 µM: IC50 [5]
3.02 µM: IC50 [1]
inactive: viability, T/C [7] 98.9% | viability, T/C [8] 94.4% | viability, T/C [9] 96.2% | viability, T/C [10] 76.3% | viability, T/C [11] 49.4% | viability, T/C [12] 41.6% | viability, T/C [13] 109% | viability, T/C [14] 104% | viability, T/C [15] 104% | viability, T/C [16] 75% | viability, T/C [17] 41.8% | viability, T/C [18] 27.7% | viability, T/C [19] 106% | viability, T/C [20] 91.2% | viability, T/C [21] 94.2% | viability, T/C [22] 85.8% | viability, T/C [23] 44.3% | viability, T/C [24] 29.5% | viability, T/C [25] 95.8% | viability, T/C [26] 89% | viability, T/C [27] 79.4% | viability, T/C [28] 65.7% | viability, T/C [29] 38.4% | viability, T/C [30] 25.6% | viability, T/C [31] 54.1% | viability, T/C [32] 79.6% | viability, T/C [33] 63% | viability, T/C [34] 48.5% | viability, T/C [35] 31.8% | viability, T/C [36] 24.9% | viability, T/C [37] 46.1% | viability, T/C [38] 54.1% | viability, T/C [39] 45.1% | viability, T/C [40] 46% | viability, T/C [41] 31.2% | viability, T/C [42] 20.8%
< 0.0316 µM: IC50 [6]
2.35 µM: IC50 [2]
2.71 µM: IC50 [3]

C[C@@H](NC(=O)c1ncnc(N)c1Cl)c1ncc(C(=O)Nc2cc(C(F)(F)F)c(Cl)cn2)s1 + CC(Nc1ncnc2nc[nH]c12)c1cc2cccc(Cl)c2c(=O)n1-c1ccccc1
> 10 µM: IC50 [3] | IC50 [4] | IC50 [5] | IC50 [6] | IC50 (curve of first compound, second compound 3.16 µM) | IC50 (curve of first compound, second compound 10 µM)
inactive: viability, T/C [19] 129% | viability, T/C [20] 114% | viability, T/C [21] 99.7% | viability, T/C [22] 95.9% | viability, T/C [23] 84.1% | viability, T/C [24] 74.9% | viability, T/C [25] 98% | viability, T/C [26] 115% | viability, T/C [27] 99.9% | viability, T/C [28] 108% | viability, T/C [29] 97.6% | viability, T/C [30] 73.3% | viability, T/C [31] 98.2% | viability, T/C [32] 106% | viability, T/C [33] 96.3% | viability, T/C [34] 102% | viability, T/C [35] 94.3% | viability, T/C [36] 94.3% | viability, T/C [37] 83.7% | viability, T/C [38] 93.3% | viability, T/C [39] 102% | viability, T/C [40] 100% | viability, T/C [41] 89.1% | viability, T/C [42] 73.2% | viability, T/C (second compound 3.16 µM, first compound 0.0316 µM) 112% | viability, T/C (second compound 3.16 µM, first compound 0.1 µM) 89% | viability, T/C (second compound 3.16 µM, first compound 0.316 µM) 96.1% | viability, T/C (second compound 3.16 µM, first compound 1 µM) 82.6% | viability, T/C (second compound 3.16 µM, first compound 3.16 µM) 99.4% | viability, T/C (second compound 3.16 µM, first compound 10 µM) 75.5% | viability, T/C (second compound 10 µM, first compound 0.0316 µM) 110% | viability, T/C (second compound 10 µM, first compound 0.1 µM) 98.5% | viability, T/C (second compound 10 µM, first compound 0.316 µM) 96.5% | viability, T/C (second compound 10 µM, first compound 1 µM) 96.1% | viability, T/C (second compound 10 µM, first compound 3.16 µM) 92.9% | viability, T/C (second compound 10 µM, first compound 10 µM) 107%

Cc1nc(NC(=O)N2CCCC2C(N)=O)sc1-c1ccnc(C(C)(C)C(F)(F)F)c1 (centres undefined)
> 10 µM: IC50 (compound alone, run of 06/12/2023)
inactive: viability, T/C (compound 3.16 µM) 71.5% [middle of 8 runs] | viability, T/C (compound 10 µM) 66% [middle of 8 runs]

Cn1nccc1Nc1nccc(-c2ccn(C(CO)c3ccc(Cl)c(F)c3)c(=O)c2)n1 (centres undefined) + COc1c(OCCCN2CCOCC2)ccc2c3n(c(=NC(=O)c4cnc(N)nc4)nc12)CCN3
9.71 µM: IC50 [1]
1.27 µM: IC50 [4]
< 0.0316 µM: IC50 [5] | IC50 [6]
2.72 µM: IC50 [3]
inactive: viability, T/C [7] 93.8% | viability, T/C [8] 98.4% | viability, T/C [9] 97.9% | viability, T/C [10] 83.5% | viability, T/C [11] 67.1% | viability, T/C [12] 49.3% | viability, T/C [13] 98.6% | viability, T/C [14] 100% | viability, T/C [15] 99.1% | viability, T/C [16] 83.3% | viability, T/C [17] 81.6% | viability, T/C [18] 41.2% | viability, T/C [19] 80.3% | viability, T/C [20] 86.7% | viability, T/C [21] 83.1% | viability, T/C [22] 57.1% | viability, T/C [23] 52.3% | viability, T/C [24] 25.6% | viability, T/C [25] 58.6% | viability, T/C [26] 55.4% | viability, T/C [27] 60% | viability, T/C [28] 55.6% | viability, T/C [29] 27.7% | viability, T/C [30] 12% | viability, T/C [31] 30.9% | viability, T/C [32] 42.4% | viability, T/C [33] 28.8% | viability, T/C [34] 31.9% | viability, T/C [35] 15.4% | viability, T/C [37] 16.9% | viability, T/C [38] 13.1% | viability, T/C [39] 18.1%
active: viability, T/C [36] 1.75% | viability, T/C [40] 13.6% | viability, T/C [41] 3.23% | viability, T/C [42] 1.67%
7.7 µM: IC50 [2]
